Results reported in publication PMC4619319, “A potent anti-inflammatory peptide from the salivary glands of horsefly” (Parasites & Vectors, 2015).

Experiments:
iNOS transcription = experiment: LPS-stimulated iNOS mRNA transcription in peritoneal macrophages (qPCR); assay type: cell-based, mouse; conditions: 100 ng/mL LPS, 6 h
Experimental: qPCR was performed using SYBR green master mix (Takara, Japan) on a Realplex Mastercycler real-time PCR system (Eppendorf, Germany) according to the manufacturer’s instruction. The gene transcription levels were normalized to GAPDH or β-actinas as illustrated in figure legends and calculated by ΔΔCt method. The accuracy of qPCR results were checked by melting curve analysis. qPCR primers were listed in Additional file 1: Table S1.
Cells were incubated with peptides (0, 5, 10, and 20 μg/mL) in the presence or absence of LPS (100 ng/mL, from Escherichia coli 0111:B4, Sigma-Aldrich, USA). After 6-h incubation, cells in one plate were washed twice with ice-cold PBS and lysed by Trizol reagent (Life Tech, USA) for total RNA extraction. PrimeScript® Reverse Transcriptase Kit (Takara, Japan) was used to synthesize cDNA for qPCR to examine the transcription levels of inducible nitric oxide synthase (iNOS), which is necessary for NO production. After 24-h incubation, culture medium of each wells of another plate was harvested for nitrite detection, which indirectly reflected the NO production. Nitrite accumulation levels were determined by NO detection kit (Beyotime, China) following the kit instruction.

IL-1β production = experiment: LPS-stimulated IL-1β production in peritoneal macrophages (ELISA); assay type: cell-based, mouse; conditions: 20 μg/mL peptide, 100 ng/mL LPS, 6 h
Experimental: Cells were incubated with peptides (0, 5, 10, and 20 μg/mL) with or without 100 ng/mL LPS (from E. coli 0111:B4, Sigma-Aldrich, USA) for 6 h. After treatment, culture medium was collected for TNF-α, IL-1β and IL-6 quantification using enzyme-linked immunosorbent assay (ELISA) kits (Dakewei, China). Cells were washed with ice-cold PBS and lysed by Trizol reagent (Life Tech, USA). Total RNA was extracted for cDNA synthesis to quantify TNF-α, IL-1β and IL-6 transcription levels by qPCR as described in qPCR section.

P-JNK1 = experiment: Western blot, LPS-induced P-JNK1 in peritoneal macrophages; assay type: cell-based, mouse; conditions: 20 μg/mL peptide, 100 ng/mL LPS, 30 min, band density ratio to β-actin
Experimental: (§1) Cells were treated with different concentrations of cecropin-TY1 (0, 5, 10, and 20 μg/mL) in the presence or absence of 100 ng/mL LPS (from E. coli 0111:B4, Sigma-Aldrich, USA). After 30-min incubation, cells were washed twice with ice-cold PBS and lysed with RIPA lysis buffer (Beyotime, China) on ice for 30 min according to our previous method. Protein concentration was quantified by BCA Protein Assay Kit (Thermo, Germany). About 40 μg protein was separated on a 10 % SDS-PAGE gel and transferred to a polyvinylidene difluoride membrane. The membrane was blocked by incubating with 5 % BSA (BD, USA) dissolved in Tris-buffered solution Tween-20 (TBST, 2.42 g/L Trisbase, 8 g/L NaCl, 0.1 % Tween 20, pH 7.6) for 2 h at room temperature. The membrane was then incubated with primary antibodies against ERK, phospho-ERK, p38, phospho-p38, JNK, phospho-JNK, phospho-IκBα, NF-κB p65 and phospho-NF-κB p65 (1:2000, Cell Signaling Technology, USA) and GAPDH/β-actin (1:5000, Santa Cruz Biotechnology, USA) overnight at 4 °C, respectively. After incubation, the immunoblot was washed three times with TBST for 5 min each time, and incubated with secondary antibody (1:5000, Cell Signaling Technology, USA) at room temperature for 1 h. Signals were measured by enhanced chemiluminescence kit in a dark room after washing three times with TBST for 10 min each time (TIANGEN, China).

P-IκBα = experiment: Western blot, LPS-induced P-IκBα in peritoneal macrophages; assay type: cell-based, mouse; conditions: 20 μg/mL peptide, 100 ng/mL LPS, 30 min, band density ratio to β-actin
Experimental: as §1

[1] = Dissociation of FITC-conjugated LPS aggregates (fluorescence); assay type: binding; conditions: FITC-LPS 1 μg/mL, 10 mM phosphate buffer pH 6.0, ex 480 nm / em 515 nm
Experimental: Fluorescein isothiocyanate (FITC)-conjugated LPS (1 μg/mL, Sigma-Aldrich, USA) was excited at 480 nm and monitored the changes in the emission of FITC-LPS at 515 nm in the incubation of different concentrations of peptides (0, 12.5, 25, 50, 100 μg/mL). Peptides were dissolved in 10 mM phosphate buffer at pH 6.0. The interactions between peptides and LPS were further assessed by a quantitative Chromogenic End-point Tachypleus amebocyte lysate (TAL) assay kit (Xiamen Houshiji, China) following the kit instruction. Briefly, different concentrations of peptides (0, 12.5, 25, 50, 100 μg/mL) were incubated with LPS (1 μg/mL, Sigma-Aldrich, USA) at 37 °C for 30 min. After incubation, 100 μL TAL solution was added to 100 μL LPS-peptide mixtures in a pyrogen-free tube and incubated at 37 °C for 10 min. Then, LPS-peptide mixtures were added with pre-warmed substrate solution for additional 6-min incubation at 37 °C. Lastly, the absorbance at 545 nm was measured on a microplate reader (Epoch Etock, BioTek, USA). The percentages of LPS-neutralizing activity were calculated.

For “GWLKKIGKKIERVGQNVRNAAISTLPIAQGAAGVAGALN-NH2 [cecropin-TY1, cecropin antimicrobial peptide from salivary glands of horsefly Tabanus yao, 39 residues, C-terminally amidated, synthesized]”, the “attenuation of LPS-activated iNOS transcription” value (from here on “attenuation”) (iNOS transcription; 5 μg/mL peptide) was 58.8%, the “attenuation” value (iNOS transcription; 10 μg/mL peptide) was 68.7% and the “attenuation” value (iNOS transcription; 20 μg/mL peptide) was 84.2%. For the same substance, the “reduction of LPS-induced IL-1β production” value (IL-1β production) was 63.4%, the “inhibition of LPS-induced P-JNK1 expression” value (P-JNK1) was 61.9% and the “inhibition of LPS-induced P-IκBα expression” value (P-IκBα) was 74.8%. The “increase of FITC-LPS fluorescence” value ([1]; 12.5 μg/mL peptide) was 33.4%, the “increase of FITC-LPS fluorescence” value ([1]; 25 μg/mL peptide) was 46.7% and the “increase of FITC-LPS fluorescence” value ([1]; 50 μg/mL peptide) was 63.3%. The “increase of FITC-LPS fluorescence” value ([1]; 100 μg/mL peptide) was 71.6%.
